In patent publication EP3564214B1, “INDAZOLE DERIVATIVES AS MODULATORS OF THE CANNABINOID SYSTEM” (Universita' Degli Studi G. D'annunzio Chieti - Pescara, priority 2018, dated 2019):
Read-outs that look alike come from different tables or passages of the source.

How the values were obtained:
[1] = biological target: T1, CB receptors (Rattus norvegicus, UniProt P20272); assay: [3H]WIN55212-2 competition binding in rat brain membrane homogenate; conditions: for displace [3H]WIN55212-2: rat brain membrane homogenate
T1 construct: Crude membrane fractions were prepared from the brain without cerebellum; from tissue; host or cells: Wistar rat brain without cerebellum, crude membrane fraction
T1 sequence (P20272 whole entry): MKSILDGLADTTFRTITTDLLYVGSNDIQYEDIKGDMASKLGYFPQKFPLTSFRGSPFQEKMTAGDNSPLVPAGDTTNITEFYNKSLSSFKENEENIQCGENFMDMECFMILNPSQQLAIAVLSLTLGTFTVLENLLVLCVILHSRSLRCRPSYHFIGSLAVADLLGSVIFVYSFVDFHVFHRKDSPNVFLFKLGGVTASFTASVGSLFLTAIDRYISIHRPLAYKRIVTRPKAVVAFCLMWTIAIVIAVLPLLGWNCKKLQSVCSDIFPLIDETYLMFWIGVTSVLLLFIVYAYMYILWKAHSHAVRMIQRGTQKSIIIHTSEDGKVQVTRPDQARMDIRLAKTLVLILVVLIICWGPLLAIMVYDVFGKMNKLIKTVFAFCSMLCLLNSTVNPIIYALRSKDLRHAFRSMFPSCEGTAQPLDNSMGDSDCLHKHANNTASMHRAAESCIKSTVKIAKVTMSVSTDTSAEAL
Method: (§1) Wistar rats were locally bred and handled according to the European Communities Council Directives (86/609/ECC) and the Hungarian Act for the Protection of Animals in Research (XXVlll.tv. Section 32). Crude membrane fractions were prepared from the brain without cerebellum. Brains were quickly removed from the euthanized rats and directly put in ice-cold 50 mM Tris-HCl buffer (pH 7.4). The collected tissue was then homogenized in 30 volumes (v/w) of ice-cold buffer with a Braun Teflon-glass homogenizer at the highest rpm. The homogenate was centrifuged at 20,000 g for 25 min and the resulting pellet was suspended in the same volume of cold buffer followed by incubation at 37°C for 30 min to remove endogenous ligands. Centrifugation was then repeated. The final pellets were taken up in five volumes of 50 mM Tris-HCl (pH 7.4) buffer containing 0.32 M sucrose and stored at -80°C. Prior to the experiment, aliquots were thawed and centrifuged at 20,000 g for 25 min and the were resuspended in 50 mM Tris-HCl (pH 7.4), homogenized with a Dounce in followed by the determination of the protein concentration by the method of Bradford.
Binding experiments were performed at 30 °C for 1 h in 50 mM Tris-HCl buffer pH 7.4 containing 2.5 mM EGTA, 5 mM MgCl2 and 0.5 mg/mL fatty acid free BSA in plastic tubes in a total assay volume of 1 mL that contained 0.3-0.5 mg/mL membrane protein.
Non-specific binding was determined in the presence of 10 µM WIN 55212-2. The incubation was terminated by diluting the samples with ice-cold wash buffer (50 mM Tris-HCl, 2.5 mM EGTA, 5 mM MgCl2, 0.5% fatty acid free BSA, pH 7.4), followed by repeated washing and rapid filtration through Whatman GF/B glass fiber filters (Whatman Ltd, Maidstone, England) presoaked with 0.1% polyethyleneimine (30 min before the filtration). Filtration was performed with a 24-well Brandel Cell Harvester (Gaithersburg, MD, USA). Filters were air-dried and immersed into Ultima Gold MV scintillation cocktail and then radioactivity was measured with a TRI-CARB 2100TR liquid scintillation analyzer (Packard).
(§2) Results are expressed as means ± S.E.M. of at least three independent experiments each performed in duplicate. In competition binding studies, the inhibitory constants (Ki) were calculated from the inflection points of the displacement curves using non-linear least-square curve fitting and the Cheng- Prusoff equation. All data and curves were analyzed by GraphPad Prism 5.0 (San Diego, CA, USA). In [^35S]GTPγS binding studies, data were expressed as the percentage stimulation of the specific [^35S]GTPγS binding over the basal activity and are given as means ± S.E.M. Each experiment was performed in triplicate and analyzed with sigmoid dose-response curve fitting to obtain potency (EC50) and efficacy (Emax) values. Statistical comparison was done by analysis of variance (one-way ANOVA) followed by the Bonferroni multiple comparison test of GraphPad Prism 5.0 (San Diego, CA, USA), P< 0.05 was chosen to indicate significant differences.

[2] = system: CB receptor-associated G-proteins; assay: Ligand stimulated [35S]GTPγS binding assay in rat brain membrane homogenate; format: biochemical; conditions: for G-protein stimulation (functional character): rat brain membrane homogenate; for EC50: [35S]GTPγS binding; for EC50 / Emax (%) ±SEM: rat brain membranes; for Emax (%) ±SEM: specific [35S]GTPγS binding, basal set as 100%
Method: as §1
(§3) Rat brain membranes (30 µg protein/tube) prepared as described above, were incubated with 0.05 nM [^35S]GTPγS (PerkinElmer) and 10^-10-10^-5 M unlabeled ligands in the presence of 30 µM GDP, 100 mM NaCl, 3 mM MgCl2 and 1 mM EGTA in 50 mM Tris-HCl buffer (pH 7.4) for 60 min at 30°C. Basal [^35S]GTPγS binding was measured in the absence of ligands and set as 100%. Nonspecific binding was determined by the addition of 10 µM unlabeled GTPγS and subtracted from total binding. Incubation, filtration and radioactivity measurement of the samples were carried out as described above.
as §2

[3] = biological target: T2, CB1 receptor (Rattus norvegicus, UniProt P20272); assay: CB1/CB2 receptor selectivity by [35S]GTPγS binding assay with rimonabant or AM630; format: biochemical; conditions: compound 10 µM; rimonabant 10 µM (CB1) vs AM630 10 µM (CB2)
T2 construct: Crude membrane fractions were prepared from the brain without cerebellum; from tissue; host or cells: Wistar rat brain without cerebellum, crude membrane fraction
T2 sequence (P20272 whole entry): as above
Method: Figures represent the specific binding of the radioligand in percentage in the presence of increasing concentrations (10^-10-10^-5 M) of the indicated ligands. "Total" on the x-axis indicates the total specific binding of the radioligand, which is measured in the absence of the unlabeled compounds. […] Figures represent relative specific binding of [^35S]GTPγS in the presence of increasing concentrations (10^-11-10^-5 M) of the indicated compounds. […] The specific binding of [^35S]GTPγS is represented in percentage in the presence or absence of 10 µM rimonabant (CB1 antagonist/inverse agonist) or AM630 (CB2 antagonist/inverse agonist). Data are expressed as percentage of mean specific binding ± S.E.M. (n≥ 3).
as §3
In the next step the compounds were evaluated for CB1/CB2 receptor selectivity by [^35S]GTPγS binding assays. The G-protein stimulatory effect of compounds LONI 1-LONI 9 (10 µM) was reduced by the CB1 receptor antagonist/inverse agonist rimonabant (10 µM) and by the CB2 receptor antagonist/inverse agonist AM630 (10 µM), and a 3-6-fold selectivity for CB1 receptor was observed.

Structure (SMILES)	displace [3H]WIN55212-2 [1]	G-protein stimulation (functional character) [2]	Ki [1]	EC50 ([2]; read-out: EC50)	EC50 ([2]; read-out: potency)	Emax (%) ±SEM [2]	selectivity for CB1 receptor [3]	Ki ([1]; 1.5 nM [3H]WIN55212-2, rat brain membranes, mean of three independent measurements (S.E.M. 5-12%), read-out: Ki (nM)*)
O=C(O)c1nn(Cc2ccc(Cl)cc2Cl)c2ccccc12 [LONI A, Lonidamine, reference compound]	neither LONI A nor its derivatives LONI B and LONI C could displace [^3H]WIN55212-2	didn't show G-protein stimulation						
CC(C)[C@H](NC(=O)c1nn(Cc2ccc(Cl)cc2Cl)c2ccccc12)C(=O)O [LONI 4, (S)-2-(1-(2,4-dichlorobenzyl)-1H-indazole-3-carboxamido)-3-methylbutanoic aci]		weak inverse agonist activity	2.6 nM	3290 nM	1800 to 3200 nM	82 ± 10.6%	3 fold	
CC(C)(C)[C@H](NC(=O)c1nn(Cc2ccc(Cl)cc2Cl)c2ccccc12)C(N)=O [LONI 3, (S)-N-(1-amino-3,3-dimethyl-1-oxobutan-2-yl)-1-(2,4-dichlorobenzyl)-1H-indazole-3 carboxamide]		partial agonists	17 nM	126 nM		139 ± 4.5%	6 fold	
NC(=O)c1nn(Cc2ccc(Cl)cc2Cl)c2ccccc12 [LONI B, reference compound]	neither LONI A nor its derivatives LONI B and LONI C could displace [^3H]WIN55212-2	weak inverse agonist		2780 nM		70 ± 8.7%		
COC(=O)c1nn(Cc2ccc(Cl)cc2Cl)c2ccccc12 [LONI C, reference compound]	neither LONI A nor its derivatives LONI B and LONI C could displace [^3H]WIN55212-2	weak inverse agonist		3160 nM		69 ± 2.6%		
CC(C)[C@H](NC(=O)c1nn(Cc2ccc(Cl)cc2Cl)c2ccccc12)C(N)=O [LONI 6, (S)-N-(1-amino-3-methyl-1-oxobutan-2-yl)-1-(2,4-dichlorobenzyl)-1H-indazole-3-carboxamide]		partial agonists	17 nM			135 ± 4.9%		
CC(C)C[C@H](NC(=O)c1nn(Cc2ccc(Cl)cc2Cl)c2ccccc12)C(N)=O [LONI 9, (S)-N-(1-amino-4-methyl-1-oxopentan-2-yl)-1-(2,4-dichlorobenzyl)-1H-indazole-3-carboxamide]		partial agonists	88 nM			120 ± 5.9%	6 fold	
CCCCCn1cc(C(=O)c2cccc3ccccc23)c2ccccc21 [JWH-018, reference compound]				16 nM		163 ± 5.2%		3.5 nM
CC(C)(C)[C@H](NC(=O)c1nn(Cc2ccc(Cl)cc2Cl)c2ccccc12)C(=O)O [LONI 1, (S)-2-(1-(2,4-dichlorobenzyl)-1H-indazole-3-carboxamido)-3,3-dimethylbutanoic acid]		weak inverse agonist activity	0.08 nM	2800 nM	1800 to 3200 nM	84 ± 6.6%		
COC(=O)[C@@H](NC(=O)c1nn(Cc2ccc(Cl)cc2Cl)c2ccccc12)C(C)C [LONI 5, (S)-methyl 2-(1-(2,4-dichlorobenzyl)-1H-indazole-3-carboxamido)-3-methylbutanoate]			1.8 nM			140 ± 3.7%		
COC(=O)[C@@H](NC(=O)c1nn(Cc2ccc(Cl)cc2Cl)c2ccccc12)C(C)(C)C [LONI 2, (S)-methyl 2-(1-(2,4-dichlorobenzyl)-1H-indazole-3-carboxamido)-3,3-dimethylbutanoate]			3.1 nM	8.4 nM		143 ±5.7%		
CC(C)C[C@H](NC(=O)c1nn(Cc2ccc(Cl)cc2Cl)c2ccccc12)C(=O)O [LONI 7, (S)-2-(1-(2,4-dichlorobenzyl)-1H-indazole-3-carboxamido)-4-methylpentanoic acid]		weak inverse agonist activity	43 nM	1870 nM	1800 to 3200 nM	86 ± 9.3%		
COC(=O)[C@H](CC(C)C)NC(=O)c1nn(Cc2ccc(Cl)cc2Cl)c2ccccc12 [LONI 8, (S)-methyl 2-(1-(2,4-dichlorobenzyl)-1H-indazole-3-carboxamido)-4-methylpentanoate]			63 nM			122 ± 4.6%		
